Experimental data published in publication PMC3199943, “Screening the MayBridge Rule of 3 Fragment Library for Compounds That Interact with the Trypanosoma brucei myo-Inositol-3-Phosphate Synthase and/or Show Trypanocidal Activity” (Molecular Biology International, 2011).

test system: A549 cells; test: Cytotoxicity against A549 cells, Alamar Blue; format: cell-based; conditions: Homo sapiens, A549, 65 h; Supplementary Table 1; compound 0.5 mM; percentage of controls (n=1)
Outline: (§1)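 Alamar Blue read-out after a 5 h dye incubation that followed ~65 h compound exposure. Cells: HeLa or A549, 2 × 10^4/well, DMEM + 10% FCS + 2 mM L-Glutamine.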

| SMILES | viability at 500 µM [%] |
| --- | --- |
| N#Cc1c(N)cccc1F [compound 115, 2‐amino‐6‐fluorobenzonitrile] | 77.4 |
| Cc1ccc2c(c1)OCO2 [compound 116, 5‐methyl‐1,3‐benzodioxole] | 109 |
| CC(=O)c1nccnc1C [compound 117, 1‐(3‐methylpyrazin‐2‐yl)ethan‐1‐one] | 88.3 |
| c1cnc2c(c1)OCCN2 [compound 118, 3,4‐dihydro‐2H‐pyrido[3,2‐b][1,4]oxazine] | 92.3 |
| N#Cc1ccc(O)cc1F [compound 120, 2‐fluoro‐4‐hydroxybenzonitrile] | 72.6 |
| Nc1ccc2c(c1)OCO2 [compound 121, 1,3‐benzodioxol‐5‐amine] | 110 |
| NC(=S)c1ccccc1 [compound 123, benzene‐1‐carbothioamide] | 87.9 |
| Oc1ccc2c(c1)OCO2 [compound 124, 1,3-benzodioxol-5-ol] | 53.6 |
| Cc1csc(CC#N)n1 [compound 126, 2-(4-methyl-1,3-thiazol-2-yl)acetonitrile] | 98.4 |
| O=C(O)c1ccccc1F [compound 129, 2‐fluorobenzoic acid] | 126 |
| Cc1cc(C(=O)O)c(C)o1 [compound 130, 2,5‐dimethyl‐3‐furoic acid] | 121 |
| O=C(O)CCc1ccco1 [compound 131, 3‐(2‐furyl)propanoic acid] | 98.1 |
| COC(=O)c1ccoc1C [compound 132, methyl 2-methyl-3-furoate] | 100 |
| CC(=O)c1sccc1N [compound 133, 1‐(3‐amino‐2‐thienyl)ethan‐1‐one] | 100 |
| Cc1csc(C(N)=O)c1 [compound 134, 4‐methylthiophene‐2‐carboxamide] | 123 |
| Cc1nc(C(N)=S)c[nH]1 [compound 135, 2-methyl-1H-imidazole-4-carbothioamide] | 102 |
| NCc1ccccc1Cl [compound 136, 2‐chlorobenzylamine] | 90.4 |
| COC(=O)c1cccs1 [compound 138, methyl thiophene‐2‐carboxylate] | 121 |
| Cc1csc(C(=O)O)c1 [compound 139, 4‐methylthiophene‐2‐carboxylic acid] | 121 |
| Cc1cc(C(N)=S)no1 [compound 140, 5‐methylisoxazole‐3‐carbothioamide] | 110 |

same assay, conditions: Supplementary Table 1; compound 0.5 mM; percentage of controls (n=1)

| SMILES | A549 Cells Alamar Blue |
| --- | --- |
| Cc1ccc(C#N)c(=O)[nH]1 [compound 109, 6‐methyl‐2‐oxo‐1,2‐dihydropyridine‐3‐carbonitrile] | 118.7 percentage of controls |
| Cc1nn(C)c(C)c1CN [compound 128, (1,3,5‐trimethyl‐1H‐pyrazol‐4‐yl)methylamine] | 87.7 percentage of controls |

biological target: T1, TbINO1 (Trypanosoma brucei brucei, UniProt Q5QQ46); test: biochemical; format: binding; conditions: Supplementary Table 1; compound 1mM; mean ± SD from Boltzman curve fitting
T1 sequence (Q5QQ46 1-528): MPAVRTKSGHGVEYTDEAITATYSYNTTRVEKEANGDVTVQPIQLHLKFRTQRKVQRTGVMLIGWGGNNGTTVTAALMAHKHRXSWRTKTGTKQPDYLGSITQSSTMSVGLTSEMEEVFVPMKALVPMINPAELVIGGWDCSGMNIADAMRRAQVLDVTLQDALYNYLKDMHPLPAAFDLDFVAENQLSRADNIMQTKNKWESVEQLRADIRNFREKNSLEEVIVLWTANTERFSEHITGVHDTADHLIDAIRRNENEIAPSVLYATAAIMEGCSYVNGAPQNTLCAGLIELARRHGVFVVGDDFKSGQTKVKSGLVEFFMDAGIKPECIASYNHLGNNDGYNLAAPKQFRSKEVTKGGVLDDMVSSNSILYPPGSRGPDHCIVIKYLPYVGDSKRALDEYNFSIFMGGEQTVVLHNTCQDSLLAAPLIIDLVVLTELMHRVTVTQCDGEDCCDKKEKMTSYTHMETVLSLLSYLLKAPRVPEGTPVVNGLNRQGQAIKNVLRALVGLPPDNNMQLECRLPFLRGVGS

| SMILES | Tb Ino1 Tm Shift [˚C] [°C] |
| --- | --- |
| Cc1ccc(C#N)c(=O)[nH]1 [compound 109, 6‐methyl‐2‐oxo‐1,2‐dihydropyridine‐3‐carbonitrile] | 0.22 ± 0.06 |
| Cc1nn(C)c(C)c1CN [compound 128, (1,3,5‐trimethyl‐1H‐pyrazol‐4‐yl)methylamine] | 0.22 ± 0.06 |

same assay, conditions: Supplementary Table 1; compound 1mM; mean ± SD from Boltzman curve fitting; read-out: Tb Ino1 Tm Shift [˚C]

| SMILES | ΔTm at 1000 µM [°C] |
| --- | --- |
| Cc1ccc2c(c1)OCO2 [compound 116, 5‐methyl‐1,3‐benzodioxole] | 0.38 ± 0.06 |

same assay, conditions: compound 1 mM; mean ± SD (n = 3); read-out: TbIno1 Tm shift [°C]

| SMILES | ΔTm at 1000 µM [°C] |
| --- | --- |
| Oc1ccc2c(c1)OCO2 [compound 124, 1,3-benzodioxol-5-ol] | 2.1 ± 0.04 |

same assay, conditions: read-out: Tb Ino1 Tm Shift [˚C]

| ΔTm at 1000 µM [°C] | SMILES |
| --- | --- |
| 0.17 ± 0.07 | N#Cc1c(N)cccc1F [compound 115, 2‐amino‐6‐fluorobenzonitrile] |
| 0.4 ± 0.06 | CC(=O)c1nccnc1C [compound 117, 1‐(3‐methylpyrazin‐2‐yl)ethan‐1‐one] |
| 0.46 ± 0.06 | c1cnc2c(c1)OCCN2 [compound 118, 3,4‐dihydro‐2H‐pyrido[3,2‐b][1,4]oxazine] |
| 0.41 ± 0.06 | N#Cc1ccc(O)cc1F [compound 120, 2‐fluoro‐4‐hydroxybenzonitrile] |
| 0.72 ± 0.07 | Nc1ccc2c(c1)OCO2 [compound 121, 1,3‐benzodioxol‐5‐amine] |
| 0.42 ± 0.06 | NC(=S)c1ccccc1 [compound 123, benzene‐1‐carbothioamide] |
| 0.62 ± 0.08 | Cc1cc(C(=O)O)c(C)o1 [compound 130, 2,5‐dimethyl‐3‐furoic acid] |
| 1.22 ± 0.09 | O=C(O)CCc1ccco1 [compound 131, 3‐(2‐furyl)propanoic acid] |
| 1.24 ± 0.07 | CC(=O)c1sccc1N [compound 133, 1‐(3‐amino‐2‐thienyl)ethan‐1‐one] |
| 0.61 ± 0.07 | Cc1csc(C(N)=O)c1 [compound 134, 4‐methylthiophene‐2‐carboxamide] |
| 0.02 ± 0.07 | NCc1ccccc1Cl [compound 136, 2‐chlorobenzylamine] |
| 0.31 ± 0.05 | COC(=O)c1cccs1 [compound 138, methyl thiophene‐2‐carboxylate] |
| 0.08 ± 0.07 | Cc1csc(C(=O)O)c1 [compound 139, 4‐methylthiophene‐2‐carboxylic acid] |
| 0.2 ± 0.07 | Cc1cc(C(N)=S)no1 [compound 140, 5‐methylisoxazole‐3‐carbothioamide] |

| SMILES | ΔTm at 1000 µM [°C] |
| --- | --- |
| O=C(O)c1ccccc1F [compound 129, 2‐fluorobenzoic acid] | 0.13 ± 0.07 |

same assay, conditions: read-out: TbIno1 Tm shift [°C]

| ΔTm at 1000 µM [°C] | SMILES |
| --- | --- |
| 2.1 ± 0.09 | Cc1csc(CC#N)n1 [compound 126, 2-(4-methyl-1,3-thiazol-2-yl)acetonitrile] |
| 1.64 ± 0.09 | COC(=O)c1ccoc1C [compound 132, methyl 2-methyl-3-furoate] |
| 1.74 ± 0.09 | Cc1nc(C(N)=S)c[nH]1 [compound 135, 2-methyl-1H-imidazole-4-carbothioamide] |

test system: HeLa cells; test: cells; conditions: Homo sapiens, HeLa, 65 h, read-out: HeLa Cells Alamar Blue
Outline: as §1

| SMILES | viability at 500 µM [%] |
| --- | --- |
| N#Cc1c(N)cccc1F [compound 115, 2‐amino‐6‐fluorobenzonitrile] | 71.3 ± 0.6 |
| Cc1ccc2c(c1)OCO2 [compound 116, 5‐methyl‐1,3‐benzodioxole] | 82.7 ± 15.6 |
| CC(=O)c1nccnc1C [compound 117, 1‐(3‐methylpyrazin‐2‐yl)ethan‐1‐one] | 87.6 ± 11.3 |
| c1cnc2c(c1)OCCN2 [compound 118, 3,4‐dihydro‐2H‐pyrido[3,2‐b][1,4]oxazine] | 84.1 ± 18 |
| N#Cc1ccc(O)cc1F [compound 120, 2‐fluoro‐4‐hydroxybenzonitrile] | 18.6 ± 10.7 |
| Nc1ccc2c(c1)OCO2 [compound 121, 1,3‐benzodioxol‐5‐amine] | 76.7 ± 16 |
| NC(=S)c1ccccc1 [compound 123, benzene‐1‐carbothioamide] | 89 ± 10.9 |
| Oc1ccc2c(c1)OCO2 [compound 124, 1,3-benzodioxol-5-ol] | 39.7 ± 12.5 |
| Cc1csc(CC#N)n1 [compound 126, 2-(4-methyl-1,3-thiazol-2-yl)acetonitrile] | 69.7 ± 10.3 |
| Cc1cc(C(=O)O)c(C)o1 [compound 130, 2,5‐dimethyl‐3‐furoic acid] | 84.7 ± 0.7 |
| O=C(O)CCc1ccco1 [compound 131, 3‐(2‐furyl)propanoic acid] | 69.8 ± 21.4 |
| COC(=O)c1ccoc1C [compound 132, methyl 2-methyl-3-furoate] | 71.3 ± 11.3 |
| CC(=O)c1sccc1N [compound 133, 1‐(3‐amino‐2‐thienyl)ethan‐1‐one] | 83 ± 12.2 |
| Cc1csc(C(N)=O)c1 [compound 134, 4‐methylthiophene‐2‐carboxamide] | 83.1 ± 5.6 |
| Cc1nc(C(N)=S)c[nH]1 [compound 135, 2-methyl-1H-imidazole-4-carbothioamide] | 90.3 ± 10.9 |
| NCc1ccccc1Cl [compound 136, 2‐chlorobenzylamine] | 53.3 ± 12.2 |
| COC(=O)c1cccs1 [compound 138, methyl thiophene‐2‐carboxylate] | 89.4 ± 9.3 |
| Cc1csc(C(=O)O)c1 [compound 139, 4‐methylthiophene‐2‐carboxylic acid] | 70.9 ± 10.7 |
| Cc1cc(C(N)=S)no1 [compound 140, 5‐methylisoxazole‐3‐carbothioamide] | 89.2 ± 6.5 |

same assay, conditions: Homo sapiens, HeLa, 65 h, read-out: HeLa Cells Alamar Blue (% survival)

| SMILES | viability at 500 µM [%] |
| --- | --- |
| Oc1ccc2c(c1)OCO2 [compound 124, 1,3-benzodioxol-5-ol] | 39.7 ± 12.5 |
| Cc1csc(CC#N)n1 [compound 126, 2-(4-methyl-1,3-thiazol-2-yl)acetonitrile] | 69.7 ± 10.3 |
| COC(=O)c1ccoc1C [compound 132, methyl 2-methyl-3-furoate] | 71.3 ± 11.3 |
| Cc1nc(C(N)=S)c[nH]1 [compound 135, 2-methyl-1H-imidazole-4-carbothioamide] | 90.3 ± 10.9 |

same assay, conditions: Homo sapiens, HeLa, 65 h, read-out: HeLa Cells Alamar Blue, Supplementary Table 1; compound 0.5 mM; percentage of controls; mean ± SD (n=3) or SE (n=2)

| SMILES | viability at 500 µM [%] |
| --- | --- |
| O=C(O)c1ccccc1F [compound 129, 2‐fluorobenzoic acid] | 78.6 ± 14.2 |

same assay, conditions: Supplementary Table 1; compound 0.5 mM; percentage of controls; mean ± SD (n=3) or SE (n=2)

| SMILES | HeLa Cells Alamar Blue |
| --- | --- |
| Cc1ccc(C#N)c(=O)[nH]1 [compound 109, 6‐methyl‐2‐oxo‐1,2‐dihydropyridine‐3‐carbonitrile] | 97.4 ± 2 percentage of controls |
| Cc1nn(C)c(C)c1CN [compound 128, (1,3,5‐trimethyl‐1H‐pyrazol‐4‐yl)methylamine] | 80.3 ± 7 percentage of controls |
